# Data reported in PMC5131364, “Pharmacologic modulation of RORγt translates to efficacy in preclinical and translational models of psoriasis and inflammatory arthritis” (Scientific Reports, 2016).
# Tests used:
# human CCR6+ T cells = assay: Human CCR6+ cells under Th1 differentiation condition; assay type: cell-based; details: Th1 polarization conditions
# Protocol: Mouse CD4+ T cell in vitro Th1 differentiation
# Total CD4+ T cells were isolated from splenocytes of C57/BL6 mice (Chareles River Labrotory) using a CD4+ T cell isolation kit (Miltenyl Biotec, Auburn, CA), following the manufacturer’s instructions. Cells were resuspended in culture medium (described in Method section of Th17 differentiation) and were added to 96‐well plates at 2x10^5 per well. Titrated JNJ‐54271074 was added to each well at final DMSO concentration of 0.2%. Cells were incubated for 1 hour, after which Th1 cell differentiation medium was added with final concentrations of 1 µg/ml anti‐CD3, 5 µg/mL anti‐CD28 (BD Pharmingen, San Diego, CA), 10 µg/ml anti‐IL4, 10 ng/mL IL‐12, (R&D Systems, Minneapolis, MN). Cells were cultured at 37 °C and 5% CO2 for 3 days. Supernatants were collected and the accumulated cytokines in culture were measured by ELISA kits (R&D Systems, Minneapolis, MN) following manufacturers' instructions.
# IL‐23 induced IL‐17A and IL‐22 production in mouse splenocytes splenocytes were isolated from C57/BL6 mice and resuspended in medium and cultured in 96‐well plates at […] per 100 µL per well. Titrated JNJ‐54271074 in DMSO were added into each well and cells were incubated for 1 hour, then medium containing IL‐23 and IL‐2 (R&D systems) was added to each well at final concentration of 1 ng/mL and 10 U/ml, respectively. Cells were cultured at 37 °C and 5% CO2 for 4 days. Supernatants were collected and the accumulated cytokines in culture were measured by ELISA according to the manufacturer’s instructions (IL‐17A kit from R&D systems, and IL‐22 from Biolegend San Diego).
# Human CCR6+ cells in vitro culture without activation or under Th1 differentiation condition Human CCR6+ cells were isolated as described in Method. For experiment without activation, cells were cultured with recombinant IL‐7 (R&D) at final concentration of 10 ng/ml in the presence of 1 µM JNJ‐ 54271074 for 4 days before intracellular staining. […]
# PBMC from RA patients = assay: IL-17A/IL-22 production from PBMC of rheumatoid arthritis patients; assay type: cell-based, human; details: anti-CD3/anti-CD28 plus IL-1β and IL-23, 3 days
# Description: Frozen PBMCs of healthy and rheumatoid arthritis patients were obtained from SeraCare Life Sciences (Gaithersburg, MD). […] 3 days later, supernatants were collected and analyzed by MSD multi-spot assay or ELISA for IL-17A, IL-22 and IL-13 production.
# [1] = tested on: IL-23-induced psoriasis-like ear skin inflammation in C57BL/6N mice; assay: IL-23-induced skin inflammation in mice; assay type: in vivo, mouse; details: for reduction of IL-17A-producing total CD3+ T cells / reduction of IL-17A-producing γδ+ T cells: 30 mg/kg BID oral
compound,measurement,setting,value
COc1nc2ccc([C@@](O)(c3ccc(C)nc3C)c3cnnn3C)cc2c(Cl)c1Cc1ccc(C(F)(F)F)cc1 [JNJ-54271074],accumulated IFNγ production,human CCR6+ T cells,minimal effect
same,IFNγ+ cells,human CCR6+ T cells; 1 μM,slightly increased
same,IL-17A+/IFNγ+ and IL-17A+ cells,human CCR6+ T cells; 1 μM,decreased
same,IC50,"PBMC from RA patients; Homo sapiens, PBMC, 72 h, read-out: IC50, IL-17A production from PBMC from RA subjects",5 ± 1.2 nM
same,"efficacy, inhibition of IL-17A production",PBMC from RA patients; RA PBMC,88%
same,"efficacy, inhibition of IL-22 production",PBMC from RA patients; RA PBMC,44%
same,"skin inflammation (total skin histology scores, abscesses, acanthosis)","[1]; 3, 10, 30 and 60 mg/kg BID oral, 7 days, dose-dependent",decreased skin inflammation
same,"ear mRNA expression of IL-17A, IL-22 and TNFα","[1]; 30 and 60 mg/kg, did not reach statistical significance",suppressed
same,reduction of IL-17A-producing total CD3+ T cells,[1]; DLNs,71%
same,reduction of IL-17A-producing γδ+ T cells,[1]; DLNs,43%
same,"FOXP3+ CD4+ T cells populations, vehicle vs compound treated groups","[1]; ear skin and DLNs, 30 mg/kg BID",very similar
same,reduction of IL-17A-producing total CD3+ T cells,[1]; ear skin,40%
same,reduction of IL-17A-producing γδ+ T cells,[1]; ear skin,60%
same,"ear mRNA expression of IL-17F, IFNγ and IL-6","[1]; oral BID, 7 days",significantly inhibited
